In the experiment the target is BioA, adenosylmethionine-8-amino-7-oxononanoate aminotransferase (Mycobacterium tuberculosis). Put plainly: BioA aminotransferase inhibition, biochemical, coupled fluorescence displacement, 20-point, dry powder, dose response (AID 743357). Conditions: coupled fluorescence displacement assay.
Setting [1] is: measured here: test 1 replicate AC50.
Where [2] appears, read: measured here: test 2 replicate AC50.

The source made the active and inactive calls. The rule behind the calls is not given here. Some results are limits rather than exact numbers.

By AC50 is commonly meant the concentration at which the activity in the assay is half-maximal. In the case of `CC(=O)c1ccc(N2CCN(C(=O)c3cc4c(cc3C)OCO4)CC2)cc1`, the AC50 is 1090 nM. Under setting [1], the AC50 came out at 1090 nM.
With `CN1c2ccc(-c3cccc(F)c3)cc2[C@H]2[C@H](CCN2C(=O)Cc2cccnc2)[C@H]1CO`, the “activity change, negative = inhibition” value (at 10 µM (top of the series)) was “inactive”. Moreover, the AC50 under setting [2] was > 20000 nM.
For the molecule `CCCCCCCC(=O)N1CC[C@@H]2[C@@H](CO)N(C)c3ccc(-c4cccc(F)c4)cc3[C@@H]21`, the “activity change, negative = inhibition” value (at 10 µM (top of the series)) was “inactive”.
Take `CC(=O)c1ccc(N2CCN(C(=O)c3ccc4ocnc4c3)CC2)cc1`: the concentration at half-maximal activity (AC50) is 198 nM. The same molecule gave an AC50 under setting [1] of 198 nM.
In the case of `CN1c2ccc(-c3cccc(F)c3)cc2[C@H]2[C@H](CCN2C(=O)c2ccc3c(c2)OCO3)[C@@H]1CO`, the “activity change, negative = inhibition” value (at 10 µM (top of the series)) is “inactive”.
As for `CC(C)NC(=O)N1CC[C@@H]2[C@@H](CO)N(C)c3ccc(-c4ccc(F)cc4)cc3[C@@H]21`, where the note is “at 10 µM (top of the series)”, the “activity change, negative = inhibition” value is “inactive”. Further, under setting [2], the concentration at half-maximal activity (AC50) was > 20000 nM.
Regarding `CC(=O)c1ccc(NCCNC(=O)c2ccc3c(c2)OCO3)cc1`, the “activity change, negative = inhibition” value (at 10 µM (top of the series)) was “inactive”.
As for `CN1c2ccc(-c3cccc(F)c3)cc2[C@@H]2[C@@H](CCN2C(=O)c2ccc3c(c2)OCO3)[C@H]1CO`, the “activity change, negative = inhibition” value (at 10 µM (top of the series)) is “inactive”.
Consider `COC(=O)CCCCCCC(=O)N1CC[C@@H]2[C@@H](CO)N(C)c3ccc(-c4cccc(F)c4)cc3[C@@H]21`, for which the “activity change, negative = inhibition” value (at 10 µM (top of the series)) is “inactive”. Further, the AC50 under setting [2] is > 20000 nM.
Take `CCCNC(=O)N1CC[C@@H]2[C@@H](CO)N(C)c3ccc(-c4ccc(F)cc4)cc3[C@@H]21`: where the note is “at 10 µM (top of the series)”, the “activity change, negative = inhibition” value was “inactive”. Moreover, under setting [2], the half-maximal activity concentration (AC50) was > 20000 nM.
Turning to `CN1c2ccc(-c3ccc(F)cc3)cc2[C@H]2[C@H](CCN2C(=O)Cc2cccnc2)[C@H]1CO`, the “activity change, negative = inhibition” value (at 9 µM (top of the series)) was “inactive”.
In the case of `CC(=O)c1ccc(N2CCN(C(=O)Nc3ccc4c(c3)OCO4)CC2)cc1`, the “activity change, negative = inhibition” value (at 10 µM (top of the series)) was “inactive”. The half-maximal activity concentration (AC50) under setting [1] was > 20000 nM.
Take `COc1ccccc1NC(=O)N1CC[C@@H]2[C@@H](CO)N(C)c3ccc(-c4ccc(F)cc4)cc3[C@@H]21`: the “activity change, negative = inhibition” value (at 10 µM (top of the series)) is “inactive”.
As to `CCC(=O)N1CC[C@@H]2[C@@H](CO)N(C)c3ccc(-c4ccc(F)cc4)cc3[C@@H]21`, the concentration at half-maximal activity (AC50) is 2820 nM. The molecule also yielded a half-maximal activity concentration (AC50) under setting [2] of 2820 nM.
For the molecule `CC(=O)c1ccc(N2CCN(S(=O)(=O)c3ccc4c(c3)OCO4)CC2)cc1`, the “activity change, negative = inhibition” value (at 10 µM (top of the series)) is “inactive”.
`COc1ccc(NC(=O)N2CC[C@@H]3[C@@H](CO)N(C)c4ccc(-c5ccc(F)cc5)cc4[C@@H]32)cc1`: under “at 10 µM (top of the series)”, the “activity change, negative = inhibition” value was “inactive”.
Consider `COc1ccccc1C(=O)N1CCN(c2ccc(C(C)=O)cc2)CC1`, for which, for the setting “at 10 µM (top of the series)”, the “activity change, negative = inhibition” value is “inactive”. Under setting [2], the AC50 is > 20000 nM.
In the case of `COc1ccccc1NC(=O)N1CC[C@@H]2[C@@H](CO)N(C)c3ccc(-c4cccc(F)c4)cc3[C@@H]21`, the “activity change, negative = inhibition” value (at 10 µM (top of the series)) was “inactive”.
For `CC(=O)c1ccc(N2CCN(C(=O)c3ccc4snnc4c3)CC2)cc1`, the concentration at half-maximal activity (AC50) is 1850 nM. This molecule also registered an AC50 under setting [1] of 1850 nM.
Take `CC(=O)c1ccc(N2CC3CC2CN3C(=O)c2ccc3c(c2)OCO3)cc1` (stereo not given): the “activity change, negative = inhibition” value (at 10 µM (top of the series)) was “inactive”. The AC50 under setting [1] is > 20000 nM.
For the molecule `CC(=O)c1ccc(N2CC3(CN(C(=O)c4ccc5c(c4)OCO5)C3)C2)cc1`, the “activity change, negative = inhibition” value (at 10 µM (top of the series)) is “inactive”.
Take `CN1c2ccc(-c3cccc(F)c3)cc2[C@@H]2[C@@H](CCN2C(=O)c2ccc3c(c2)OCO3)[C@@H]1CO`: the “activity change, negative = inhibition” value (at 5.6 µM (top of the series)) is “inactive”.
As to `COc1ccc(NC(=O)N2CC[C@@H]3[C@@H](CO)N(C)c4ccc(-c5cccc(F)c5)cc4[C@@H]32)cc1`, the “activity change, negative = inhibition” value (at 10 µM (top of the series)) is “inactive”.
With `CC(=O)c1ccc(N2CCN(C(=O)c3cc4c(cc3Cl)OCO4)CC2)cc1`, the AC50 was 6570 nM. The molecule also came in with an AC50 under setting [1] of 6570 nM.
As for `O=C(c1ccc2c(c1)OCO2)N1CCN(c2ccc(OC(F)(F)F)cc2)CC1`, the “activity change, negative = inhibition” value (at 10 µM (top of the series)) is “inactive”.
Still for that read-out and setting: as for `CN1c2ccc(-c3ccc(F)cc3)cc2[C@H]2[C@H](CCN2C(=O)Nc2cc(F)ccc2F)[C@H]1CO`, the entry is “inactive”.
As for `CC(=O)c1ccc(N2CCN(C(=O)c3ccc4c(c3C)OCO4)CC2)cc1`, the AC50 is 53.7 nM. In addition, the AC50 under setting [1] was determined as 53.7 nM.
On to `CC(=O)c1ccc(N2CCN(C(=O)c3ccc4c(c3)OCO4)[C@H](C)C2)cc1`, for which the AC50 is 55.3 nM. In addition, the concentration at half-maximal activity (AC50) under setting [2] amounted to 55.3 nM.
As to `CN1c2ccc(-c3ccc(F)cc3)cc2[C@H]2[C@H](CCN2C(=O)Nc2ccc(F)cc2)[C@H]1CO`, the “activity change, negative = inhibition” value (at 10 µM (top of the series)) was “inactive”.
As to `O=C(c1ccc2c(c1)OCO2)N1CCN(c2ccc(S(=O)(=O)C(F)(F)F)cc2)CC1`, the “activity change, negative = inhibition” value (at 10 µM (top of the series)) is “inactive”.
Turning to `CC(=O)c1ccc(N2CCCN(C(=O)c3ccc4c(c3)OCO4)CC2)cc1`, the AC50 is 289 nM. The same molecule gave a half-maximal activity concentration (AC50) under setting [1] of 289 nM.
Regarding `CN1c2ccc(-c3cccc(F)c3)cc2[C@H]2[C@H](CCN2C(=O)Nc2ccccc2F)[C@H]1CO`, the “activity change, negative = inhibition” value (at 10 µM (top of the series)) is “inactive”.
`CC(=O)c1ccc(N2CCN(C(=O)c3ccccc3Cl)CC2)cc1`: the concentration at half-maximal activity (AC50) was 8240 nM. Under setting [2], the half-maximal activity concentration (AC50) amounted to 8240 nM.
As for `CN1c2ccc(-c3ccc(F)cc3)cc2[C@H]2[C@H](CCN2C(=O)Cc2ccccn2)[C@H]1CO`, the “activity change, negative = inhibition” value (at 10 µM (top of the series)) was “inactive”.
Turning to `COCC(=O)N1CC[C@@H]2[C@@H](CO)N(C)c3ccc(-c4cccc(F)c4)cc3[C@@H]21`, the concentration at half-maximal activity (AC50) was 55.4 nM. The same molecule returned a concentration at half-maximal activity (AC50) under setting [2] of 55.4 nM.
Consider `CC(=O)c1ccc(N2CCN(C(=O)c3ccc4c(c3)OC(F)(F)O4)CC2)cc1`, for which, under “at 10 µM (top of the series)”, the “activity change, negative = inhibition” value is “inactive”.
Regarding `CC(=O)c1ccc(N2CCN(C(=O)c3ccccc3F)CC2)cc1`, the concentration at half-maximal activity (AC50) was 6400 nM. Moreover, under setting [2], the concentration at half-maximal activity (AC50) is 6400 nM.
As to `CC(=O)c1ccc(N2CCN(C(=O)c3ccc4c(c3)OCO4)CC2)cc1`, the AC50 is 49.7 nM. The AC50 under setting [1] turned out to be 30.1 nM. Besides, under setting [2], the AC50 was 69.2 nM.
In the case of `COc1cc(C(=O)N2CCN(c3ccc(C(C)=O)cc3)CC2)cc2c1OCO2`, the concentration at half-maximal activity (AC50) was 181 nM. The molecule further returned an AC50 under setting [1] of 181 nM.
Consider `CNS(=O)(=O)c1ccc(N2CCN(C(=O)c3ccc4c(c3)OCO4)CC2)cc1`, for which, under “at 10 µM (top of the series)”, the “activity change, negative = inhibition” value was “inactive”.
For `CC(=O)c1ccc(N2CCN(C(=O)c3cc4c(cn3)OCO4)CC2)cc1`, under “at 10 µM (top of the series)”, the “activity change, negative = inhibition” value is “inactive”. Also, the concentration at half-maximal activity (AC50) under setting [1] was > 20000 nM.
For the molecule `CN1c2ccc(-c3cccc(F)c3)cc2[C@H]2[C@H](CCN2C(=O)Cc2ccccc2)[C@H]1CO`, the “activity change, negative = inhibition” value (at 10 µM (top of the series)) is “inactive”.
For the molecule `CC(=O)c1ccc(N2CCN(C(=O)c3cccc4c3OCO4)CC2)cc1`, the AC50 was 1580 nM. Further, the half-maximal activity concentration (AC50) under setting [1] turned out to be 1580 nM.
For `COc1cccc(NC(=O)N2CC[C@@H]3[C@@H](CO)N(C)c4ccc(-c5cccc(F)c5)cc4[C@@H]32)c1`, the “activity change, negative = inhibition” value (at 10 µM (top of the series)) is “inactive”.
Still for that read-out and setting: as for `CC(=O)c1ccc(N2CCN(C(=O)c3ccc4c(c3)OC(C)(C)O4)CC2)cc1`, the entry is “inactive”.
Still for that read-out and setting: as for `CN(C)S(=O)(=O)c1ccc(N2CCN(C(=O)c3ccc4c(c3)OCO4)CC2)cc1`, the entry is “inactive”.
Consider `CC(=O)c1ccc(N2CCN(C(=O)c3ccc(Cl)c(Cl)c3)CC2)cc1`, for which the half-maximal activity concentration (AC50) is 217 nM. The AC50 under setting [1] was found to be 217 nM.
Turning to `CNC(=O)c1ccc(N2CCN(C(=O)c3ccc4c(c3)OCO4)CC2)cc1`, where the note is “at 10 µM (top of the series)”, the “activity change, negative = inhibition” value was “inactive”. The half-maximal activity concentration (AC50) under setting [2] is > 20000 nM.
With `O=C(c1ccc2c(c1)OCO2)N1CCN(c2ccc(C(F)(F)F)cc2)CC1`, the “activity change, negative = inhibition” value (at 10 µM (top of the series)) was “inactive”. Moreover, the AC50 under setting [1] is > 20000 nM.

The record behind these values is PubChem BioAssay AID743357 (Broad Institute, 2014).
